Laboratory results published in BindingDB's records for doi:10.1021/jm00089a028 (1992).
Residues, ends and D or L forms follow the SMILES beside them.

Each molecule was assayed against Endothelin receptor type B (Sus scrofa) (assay: Binding activity against Endothelin B receptor 0f Porcine cerebellum membranes).

| IC50 [µM] | Compound |
| --- | --- |
| > 100 | CC[C@H](C)[C@H]1NC(=O)[C@H](C)NC(=O)[C@@H](CCC(=O)O)NC(=O)[C@@H](Cc2c[nH]c3ccccc23)NC(=O)[C@H](CC(C)C)NC1=O (HELM PEPTIDE1{A.[CC[C@H](C)[C@@H](N[*:1])C(=O)[*:2]].L.[dW].[dE]}$PEPTIDE1,PEPTIDE1,1:R1-5:R2$$$V2.0) |
| > 100 | CC(C)[C@H]1NC(=O)[C@H](C)NC(=O)[C@@H](CC(=O)O)NC(=O)[C@@H](Cc2c[nH]c3ccccc23)NC(=O)[C@@H]2CCCN2C1=O (HELM PEPTIDE1{A.[dV].P.[dW].[dD]}$PEPTIDE1,PEPTIDE1,1:R1-5:R2$$$V2.0) |
| 30 | CC(C)C[C@@H]1NC(=O)[C@@H](C(C)C)NC(=O)CN(C)C(=O)[C@@H](CC(=O)O)NC(=O)[C@@H](Cc2c[nH]c3ccccc23)NC1=O (HELM PEPTIDE1{L.[dW].[dD].[Sar].[dV]}$PEPTIDE1,PEPTIDE1,1:R1-5:R2$$$V2.0) |
| 47 | CC(C)C[C@@H]1NC(=O)[C@@H](C(C)C)NC(=O)[C@H](C)N(C)C(=O)[C@@H](CC(=O)O)NC(=O)[C@@H](Cc2c[nH]c3ccccc23)NC1=O (HELM PEPTIDE1{L.[dW].[dD].[meA].[dV]}$PEPTIDE1,PEPTIDE1,1:R1-5:R2$$$V2.0) |
| > 100 | CC(C)C[C@@H]1NC(=O)[C@@H](C(C)C)NC(=O)[C@@H]2CCCN2C(=O)[C@@H](CCC(=O)O)NC(=O)[C@@H](Cc2c[nH]c3ccccc23)NC1=O (HELM PEPTIDE1{L.[dW].[dE].P.[dV]}$PEPTIDE1,PEPTIDE1,1:R1-5:R2$$$V2.0) |
